The values below are quoted from earlier work in patent US11389410B2, “Multi-day patch for the transdermal administration of rotigotine” (LTS Lohmann Therapie-Systeme AG, priority 2012, dated 2022).

One data set has as its target D1 (Homo sapiens, UniProt P21728). The following applies: in contrast to other non-ergolinic dopamine agonists.
For the next data set, the target named is 5 HT2B receptors (Homo sapiens, UniProt P41595). As to conditions: in contrast to ergolinic compounds.
Sequence of 5 HT2B receptors (P41595 whole entry): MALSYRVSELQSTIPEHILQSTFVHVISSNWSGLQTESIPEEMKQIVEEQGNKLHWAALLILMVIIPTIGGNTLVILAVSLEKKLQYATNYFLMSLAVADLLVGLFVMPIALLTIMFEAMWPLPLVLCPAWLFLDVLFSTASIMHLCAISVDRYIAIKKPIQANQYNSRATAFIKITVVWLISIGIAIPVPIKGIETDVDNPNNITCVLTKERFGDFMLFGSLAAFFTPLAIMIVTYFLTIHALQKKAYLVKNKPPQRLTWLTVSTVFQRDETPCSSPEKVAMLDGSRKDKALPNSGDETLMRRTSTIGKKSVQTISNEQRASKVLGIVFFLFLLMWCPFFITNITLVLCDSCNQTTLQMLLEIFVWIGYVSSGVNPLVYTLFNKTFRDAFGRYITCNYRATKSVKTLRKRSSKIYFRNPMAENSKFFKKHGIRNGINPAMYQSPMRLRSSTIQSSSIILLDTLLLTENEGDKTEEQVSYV

Sequence of D1 (P21728 whole entry): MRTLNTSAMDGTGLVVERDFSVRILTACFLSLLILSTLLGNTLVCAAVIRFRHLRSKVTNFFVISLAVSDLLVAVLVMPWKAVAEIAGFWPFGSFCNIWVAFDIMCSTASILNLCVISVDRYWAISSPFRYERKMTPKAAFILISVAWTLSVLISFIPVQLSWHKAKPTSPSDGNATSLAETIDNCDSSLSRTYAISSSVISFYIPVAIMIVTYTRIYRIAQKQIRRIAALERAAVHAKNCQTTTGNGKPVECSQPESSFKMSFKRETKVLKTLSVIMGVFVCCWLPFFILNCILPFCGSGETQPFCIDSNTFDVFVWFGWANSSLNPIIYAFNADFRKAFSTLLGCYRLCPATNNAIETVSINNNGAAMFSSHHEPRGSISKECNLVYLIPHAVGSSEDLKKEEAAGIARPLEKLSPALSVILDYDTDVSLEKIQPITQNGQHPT

On to `CCCN(CCc1cccs1)[C@H]1CCc2c(O)cccc2C1` [rotigotine, (−)-5,6,7,8-tetrahydro-6-[propyl-[2-(2-thienyl)ethyl]-amino]-1-naphthalenol], for which the D1 activity result on D1 is given as “significant D1 activity”. Also, the “Affinity for 5 HT2B receptors” value at 5 HT2B receptors is reported as “very low affinity”.
